Experimental data reported in patent US8349791B2, “Polypeptides that bind membrane proteins” (The Trustees of the University of Pennsylvania, priority 2006, dated 2013).
Peptide text beside a SMILES is read from it.

What was measured:
[1] = target: T1, CHO cells expressing αIIbβ3 (Homo sapiens, UniProt P08514); assay: Force spectroscopy (laser tweezers), CHO cells and fibrinogen-coated beads; assay type: cell-based, Chinese hamster; conditions: 0.5 μM polypeptide
T1 construct: expressed in transfected cells; host or cells: CHO cells
From the text: Litvinov R I et al. Proc. Natl. Acad. Sci. USA. 99, 7426-31 (2002). Recombinant human OPN, prepared as previously described (Bennett J S et al. J. Biol. Chem. 272, 8137-40 (1997)) or purified human fibrinogen was covalently bound to 0.93 μm carboxylate-modified latex beads. Individual cells, trapped from a suspension of gel filtered human platelets or CHO cells, were manually attached to 5 μm diameter silica pedestals coated with polylysine. An OPN- or fibrinogen-coated bead, trapped by the laser light, was then brought into proximity of an immobilized cell, oscillated at 50 Hz, and then brought into repeated intermittent contact with the cell by micromanipulation. Data collection was initiated at the first contact between the bead and the cell. Rupture forces following repeated contacts were collected for periods of several seconds to one minute. Individual forces measured during each contact-detachment cycle were collected into 10 pN-wide bins. The number of events in each bin was then plotted against the average force for that bin after normalizing for the total number of interaction cycles. Thus, the percentage of events in a particular force range (bin) represents the probability of rupture events at that tension. […] Therefore, rupture forces in this range were not considered when the data were analyzed. […]

β1 TM domain = target: T2, β1 TM domain (Homo sapiens, UniProt P05556); assay: DN-TOXCAT heterodimerization; assay type: cell-based; conditions: coexpressed in bacterial membranes
T2 construct: expressed in transfected cells; host or cells: E. coli MM39, pDNToxR-Duet
Description: (§1) Both the affinity and specificity of the membrane protein-binding peptides for their targets when coexpressed in bacterial membranes were assessed with a DN-“TOXCAT” assay (FIGS. 3a-3c). In TOXCAT, a TM sequence of interest is fused to a ToxR protein (TM-ToxR) that binds to the ctx promoter as a dimer, which induces expression of chloramphenicol acetyltransferase (CAT) (W. P. Russ, D. M. Engelman, Proc. Natl. Acad. Sci. U.S.A. 96, 863 (1999); D. Langosch, B. Brosig, H. Kolmar, H. J. Fritz, J. Mol. Biol. 263, 525 (1996)). In the DN assay, the TM1-ToxR fusion protein is coexpressed with a second fusion protein (TM2-ToxR*) containing a nonfunctional mutant of the ToxR domain. TM-driven dimerization leads to a ToxR-ToxR* dimer that is unable to bind the ctx promoter or to induce CAT synthesis (FIG. 3a). The resulting decrease in CAT activity can be used to monitor the formation of a heterodimeric TM complex. In principle, this assay could be accomplished by adding an exogenous synthetic peptide (D. Gerber, N. Sal-Man, Y. Shai, J. Mol. Biol. 339, 243 (2004)); however, it is difficult to assure that different peptides will be similarly inserted into the Escherichia coli inner membrane.
(§2) For testing the specificity of the designed membrane protein-binding polypeptide sequences against the integrin TM domains, the designed sequences (anti-αIIb and anti-αV) were cloned into MCS1 of the Duet vector and the integrin TM domains into MCS2 of the Duet vector. In this configuration, the integrin TMs compete for the homodimers formed by the polypeptide sequences, with the decrease in CAT signal proportional to the extent of heterodimerization between a given integrin TM and polypeptide sequence relative to the homodimerization of the polypeptide sequence.
(§3) Single MM39 colonies containing pDNToxR-Duet constructs from selective plates were chosen, inoculated in 5 mL of LB medium containing 100 μg/mL ampicillin and grown to an OD600 of 0.2 at 37° C. with vigorous shaking. IPTG was added to the medium at a final concentration of 0.1 mM IPTG and grown to an OD600 of 0.7. Purification, immunoblotting, CAT ELISA and MalE complementation assays are essentially as described previously. Li, R., Gorelik, R., Nanda, V., Law, P. B., Lear, J. D., DeGrado, W. F. and Bennett, J. S. J. Biol. Chem. 2004, 279, 26666-26673 (2004). For immunoblotting, anti-MBP (NEB) was used for pccKAN (TOXCAT) constructs, whereas anti-myc (Covance) and anti-HA (Covance) were used for pDNToxR-Duet constructs. CAT ELISA results are an average of 3 independent replicates.

α2 TM domain = target: T3, α2 TM domain (Homo sapiens, UniProt P17301); assay: DN-TOXCAT heterodimerization; assay type: cell-based; conditions: coexpressed in bacterial membranes
T3 construct: expressed in transfected cells; host or cells: E. coli MM39, pDNToxR-Duet
Description: as §1, §2, §3

β3 TM domain = target: T4, β3 TM domain (Homo sapiens, UniProt P05106); assay: DN-TOXCAT heterodimerization; assay type: cell-based; conditions: coexpressed in bacterial membranes
T4 construct: expressed in transfected cells; host or cells: E. coli MM39, pDNToxR-Duet
Description: as §1, §2, §3

FITC-αIIb-TM = target: T5, FITC-αIIb-TM (Homo sapiens, UniProt P08514); assay: FRET heterodimeric association in micelles; assay type: binding; conditions: pH 7.5
T5 construct: designated αIIb-TM, spanning residues Trp968 to Lys989 of αIIb was synthesized; made in house; host or cells: chemical peptide synthesis (no expression host)
Description: FRET provided a more direct measure of the αIIb-TM/anti-αIIb heterodimeric association. […] Because the appropriate parameter for the association of polypeptides in micelles is generally the polypeptide concentration in the detergent micellar phase rather than the bulk polypeptide concentration, dissociation constants are often given in mole fraction units (polypeptide/detergent ratios).
Fluorescence resonance energy transfer (FRET) experiments were conducted on an ATF 105 spectrofluorometer (Aviv Biomedical, Inc., Lakewood, N.J.) using 0.3 cm path length cuvettes. […] Reference samples contain the same amount of FITC-αIIb-TM and non-labeled anti-αIIb to their corresponding FRET samples. Emission and excitation scans of the 1:1 mixture of FITC-αIIb-TM/coum-anti-αIIb were carried out to determine the optimal excitation and emission wavelengths. Excitation at 415 nm was selected. For the titration experiments in FIG. 2b, the emission at 500 nm was monitored. A slit width of 1.5 nm was used for both the excitation and emission. The signal and QC PMT high voltages were set at 737.3 V and 75.0 V, respectively. For the time-domain experiments, an experiment time of 600 seconds with 10 seconds of interval time and 10 seconds of average time was used. […] The fluorescence intensity values were used after correction of the inner filter effects using the standard method. […]

αIIb TM domain = target: T6, αIIb TM domain (Homo sapiens, UniProt P08514); assay: DN-TOXCAT heterodimerization; assay type: cell-based; conditions: coexpressed in bacterial membranes
T6 construct: expressed in transfected cells; host or cells: E. coli MM39, pDNToxR-Duet
Description: Both the affinity and specificity of the membrane protein-binding peptides for their targets when coexpressed in bacterial membranes were assessed with a DN-“TOXCAT” assay (FIGS. 3a-3c). In TOXCAT, a TM sequence of interest is fused to a ToxR protein (TM-ToxR) that binds to the ctx promoter as a dimer, which induces expression of chloramphenicol acetyltransferase (CAT) (W. P. Russ, D. M. Engelman, Proc. Natl. Acad. Sci. U.S.A. 96, 863 (1999); D. Langosch, B. Brosig, H. Kolmar, H. J. Fritz, J. Mol. Biol. 263, 525 (1996)). In the DN assay, the TM1-ToxR fusion protein is coexpressed with a second fusion protein (TM2-ToxR*) containing a nonfunctional mutant of the ToxR domain. TM-driven dimerization leads to a ToxR-ToxR* dimer that is unable to bind the ctx promoter or to induce CAT synthesis (FIG. 3a). The resulting decrease in CAT activity can be used to monitor the formation of a heterodimeric TM complex. […]
Mutants were generated using the QuikChange site-directed mutagenesis kit (Stratagene). […] In order to quantify the effects of mutations to anti-αIIb on the change in heterodimerization relative to wild-type anti-αIIb, a disruption index (or % disruption of heterodimerization) was calculated from the data as follows: […]

T1 sequence (P08514 891-1039 limits assumed): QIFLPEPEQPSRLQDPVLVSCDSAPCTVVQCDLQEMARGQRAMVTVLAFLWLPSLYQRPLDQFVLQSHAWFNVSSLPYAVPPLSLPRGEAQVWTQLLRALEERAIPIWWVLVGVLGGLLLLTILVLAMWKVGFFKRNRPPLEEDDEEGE
T1 sequence (P08514 32-887 partner limits assumed): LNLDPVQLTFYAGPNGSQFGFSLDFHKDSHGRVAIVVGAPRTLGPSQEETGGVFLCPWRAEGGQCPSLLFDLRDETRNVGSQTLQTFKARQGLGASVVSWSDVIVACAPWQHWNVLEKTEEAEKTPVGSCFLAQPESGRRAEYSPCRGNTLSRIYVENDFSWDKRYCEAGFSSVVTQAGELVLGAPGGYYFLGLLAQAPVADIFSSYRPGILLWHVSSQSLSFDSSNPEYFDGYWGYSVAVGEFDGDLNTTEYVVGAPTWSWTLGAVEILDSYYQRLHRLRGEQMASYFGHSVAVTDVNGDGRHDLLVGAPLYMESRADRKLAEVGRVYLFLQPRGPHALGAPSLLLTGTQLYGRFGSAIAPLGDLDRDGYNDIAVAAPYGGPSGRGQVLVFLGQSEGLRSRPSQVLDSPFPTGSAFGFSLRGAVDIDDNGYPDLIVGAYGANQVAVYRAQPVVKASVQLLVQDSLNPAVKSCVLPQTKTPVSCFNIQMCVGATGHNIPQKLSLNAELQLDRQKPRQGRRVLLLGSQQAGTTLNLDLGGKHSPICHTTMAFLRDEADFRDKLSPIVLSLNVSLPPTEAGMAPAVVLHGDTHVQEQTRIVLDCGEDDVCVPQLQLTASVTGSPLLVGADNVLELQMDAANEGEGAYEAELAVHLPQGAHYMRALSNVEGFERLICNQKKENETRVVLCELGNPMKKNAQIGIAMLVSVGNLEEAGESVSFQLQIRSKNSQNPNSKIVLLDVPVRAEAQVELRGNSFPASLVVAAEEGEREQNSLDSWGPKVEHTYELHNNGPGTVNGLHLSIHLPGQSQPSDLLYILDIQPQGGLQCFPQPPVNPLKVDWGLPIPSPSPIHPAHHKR
T1 sequence (P05106 27-788 partner): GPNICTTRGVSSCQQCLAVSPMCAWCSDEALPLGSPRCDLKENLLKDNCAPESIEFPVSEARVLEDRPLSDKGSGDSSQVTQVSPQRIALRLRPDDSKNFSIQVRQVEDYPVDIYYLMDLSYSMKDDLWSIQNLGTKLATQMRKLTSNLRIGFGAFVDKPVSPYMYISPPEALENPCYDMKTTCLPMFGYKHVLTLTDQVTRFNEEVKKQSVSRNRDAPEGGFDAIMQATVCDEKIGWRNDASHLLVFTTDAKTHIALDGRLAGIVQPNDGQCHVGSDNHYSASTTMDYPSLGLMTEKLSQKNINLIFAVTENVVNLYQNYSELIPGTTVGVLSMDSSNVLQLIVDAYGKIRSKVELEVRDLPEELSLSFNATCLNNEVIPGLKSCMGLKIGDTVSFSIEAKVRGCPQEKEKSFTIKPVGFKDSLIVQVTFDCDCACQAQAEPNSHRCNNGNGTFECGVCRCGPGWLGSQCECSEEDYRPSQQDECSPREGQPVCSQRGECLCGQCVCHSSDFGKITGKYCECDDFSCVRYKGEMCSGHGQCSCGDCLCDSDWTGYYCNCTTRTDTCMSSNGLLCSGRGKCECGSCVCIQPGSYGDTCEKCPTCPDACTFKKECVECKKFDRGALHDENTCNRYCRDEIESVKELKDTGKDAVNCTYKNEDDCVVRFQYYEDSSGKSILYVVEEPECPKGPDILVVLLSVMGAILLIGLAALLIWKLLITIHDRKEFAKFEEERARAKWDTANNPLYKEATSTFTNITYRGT
T5 sequence (P08514 999-1020 limits assumed): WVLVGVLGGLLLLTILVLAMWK
T4 sequence (P05106 with tags, fused parts or gaps limits assumed): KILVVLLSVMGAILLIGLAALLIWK
T3 sequence (P17301 with tags, fused parts or gaps limits assumed): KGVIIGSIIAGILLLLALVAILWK
T2 sequence (P05556 with tags, fused parts or gaps limits assumed): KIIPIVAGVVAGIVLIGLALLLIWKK
T6 sequence (P08514 with tags, fused parts or gaps limits assumed): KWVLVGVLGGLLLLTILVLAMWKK

CC[C@H](C)[C@H](NC(=O)[C@H](Cc1ccccc1)NC(=O)[C@H](Cc1ccccc1)NC(=O)[C@@H]1CCCN1C(=O)[C@H](CC(C)C)NC(=O)[C@H](CC(C)C)NC(=O)[C@H](CCSC)NC(=O)[C@@H](NC(=O)[C@H](Cc1ccc(O)cc1)NC(=O)[C@H](C)NC(=O)[C@H](CCCCN)NC(=O)[C@@H](N)CCCCN)C(C)C)C(=O)NCC(=O)N[C@@H](CC(C)C)C(=O)N[C@@H](CC(C)C)C(=O)N[C@@H](CC(C)C)C(=O)NCC(=O)N[C@@H](CC(C)C)C(=O)N[C@H](C(=O)N[C@@H](Cc1ccccc1)C(=O)NCC(=O)NCC(=O)N[C@@H](C)C(=O)N[C@@H](Cc1ccccc1)C(=O)N[C@@H](Cc1c[nH]c2ccccc12)C(=O)NCC(=O)N1CCC[C@H]1C(=O)N[C@@H](C)C(=O)N[C@@H](CCCNC(=N)N)C(=O)N[C@@H](Cc1c[nH]cn1)C(=O)N[C@@H](CC(C)C)C(=O)N[C@@H](CCCCN)C(=O)N[C@@H](CCCCN)C(N)=O)[C@@H](C)CC [anti-αIIb] (H-KKAYVMLLPFFIGLLLGLIFGGAFWGPARHLKK-NH2; N-terminus assumed)
rupture force between CHO cells expressing αIIbβ3 and fibrinogen-coated beads [1]: peak of rupture force identical to that seen when platelets were incubated with ADP
rupture force peak after pre-incubation of CHO cells with abciximab ([1]; abciximab 200 μg/ml): not present
interaction with β1 TM domain (β1 TM domain): failed to significantly interact
interaction with α2 TM domain (α2 TM domain): failed to significantly interact
interaction with β3 TM domain (β3 TM domain): failed to significantly interact
apparent Kdiss for the αIIb-TM/anti-αIIb interaction (FITC-αIIb-TM): 3.2±0.5×10^−4 mole fraction units
CAT signal of anti-αIIb-ToxR with αIIb as the DN partner (αIIb TM domain): strongly attenuated
